The source of these data is US20190298775A1, “LIVER ORGANOID COMPOSITIONS AND METHODS OF MAKING AND USING SAME” (Children's Hospital Medical Center, priority 2016, published 2019).

Series [1] relates to human iPSC-derived liver organoids. Briefly: Albumin secretion of organoids (ELISA). Type of series: cell-based. How it is done: On Day 7-8, definitive endoderm organoids with plated cells were gently pipetted to delaminate from dishes. Isolated spheroids were centrifuged at 800 rpm for 3 minutes and, after removing supernatant, embedded in 100% matrigel drop on the dishes. The plates were placed at 37° C. in an atmosphere of 5% CO2/95% air for 5-15 min. After the Matrigel was solidified, Advanced DMEM/F12 was added with B27, N2 and Retinoic acid (RA; Sigma, St. Louis, Mo.) 2 μM for 1-5 days. The media was replaced every other day. After RA treatment, organoids embedded in Matrigel drop were cultured in Hepatocyte culture medium (HCM Lonza, Walkersville, Md.) with 10 ng/mL hepatocyte growth factor (HGF; PeproTech, Rocky Hill, N.J.), 0.1 μM Dexamethasone (Dex; Sigma) and 20 ng/mL Oncostatin M (OSM; R&D Systems). Cultures for cell differentiation were maintained at 37° C. in an atmosphere of 5% CO2/95% air and the medium was replaced every 3 days. Around Day 20-30, organoids embedded in Matrigel drop were isolated by scratching and gentle pipetting for any analyses.
For measuring albumin, fibrinogen and complement factors secreted level of organoids, 200 μL of culture supernatant of organoids on Ultra-Low attachment 96 well plates (Corning) were collected. The culture supernatants were collected and stored at −80° C. until use. The supernatant was assayed with Human Albumin ELISA Quantitation Set (Bethyl Laboratories, Inc., TX, USA) and fibrinogen (Thermo Fisher Scientific) according to the manufacturer's instructions. For analyzing complement factors, supernatants were measured with Luminex System (Luminex Corporation, Austin, Tex.) according to the manufacturer's instructions. To calculate albumin production per the number of cells, the linear regression equation of cell numbers by diameter of an organoid was used. For measuring total bile acid secreted level intra-luminal organoids, fluid inside organoids was absorbed using microinjection Nanoject II (Drummond Scientific, Broomall, Pa., USA). Fluid absorbed was dilute in PBS and assayed with Total Bile Acid ELISA Kit (Antibodies-online, Inc., GA, USA). To calculate the volume of total bile acid, the number of cells in organoid was calculated using the linear regression equation in the same manner for albumin production and the molecular weight of cholic acid was used for calculation and comparing with volume in previous report.
(In general: In an ELISA, binding on a coated surface is turned into a signal by an enzyme label.)

In a further series the test system is human liver organoids. As to conditions: for organoid viability / cell viability: human; for organoid viability: 130 μM; for cell viability: 50 μM.
A further series deals with liver organoids. Kind of series: Lipid accumulation in organoids after oleic acid (BODIPY live staining). The format is cell-based, human. As to conditions: 3 days after oleic acid treatment. As to the method: Images were captured sequentially using fluorescent microscopy BZ-9000. […] The following regents or kits were used: BODIPY® 493/503 for lipids (Thermo Fisher Scientific), and SiR Actin Kit for cytoskeleton (USA Scientific, FL, USA), CellROX® Green Reagent for ROS (Fisher Scientific), TMRM (Thermo Fisher Scientific) for mitochondria. […] ROS production, mitochondria size and number were analyzed by IMARIS 8.

Another series concerns lipotoxic organoid model. Briefly: Viability in organoids on vulnerable (lipotoxic, oleic acid) condition. Type of series: cell-based, human. How it is done: Next, 50 μM of Troglitazone was treated with or without 50 μM NAC for 24h. […] Images were captured sequentially using fluorescent microscopy BZ-9000.
Series [2] concerns bile transport activity in liver organoids.
Procedure: To determine if FD can be used for live assessment of transport capacity without exchanging the medium and adjusting exposure, chronological hepatobiliary transport activity was further investigated with time-lapse imaging. […] The opposite directionality of this transport flow was determined by the micro-injection of FD into organoids.
To quantify the inhibitory potential for FD excretion, Applicant developed a simple but robust quantification method by determining the fluorescent intensity ratio between outside and inside the organoid by image J (FIG. 4, panel B).
Fluorescein diacetate was used for evaluating bile transport activity in organoids. Around Day 25, the organoids were rinsed with PBS, and, fluorescein diacetate was treated to organoids in medium. In addition, to investigate the direction of transport, fluorescein diacetate was injected to organoids using by Nanoject III (Drummond Scientific). After treatment or injection of fluorescein diacetate, images were captured on fluorescent microscopy BZ-X710 (Keyence). […] Changes in brightness or contrast during processing were applied equally across the entire image.

In general, cell viability refers to a read-out of living cells in per cent, often relative to untreated cells.

Like-named read-outs stand apart in the source and are kept apart here.

As to `CC1=C(/C=C/C(C)=C/C=C/C(C)=C/C(=O)O)C(C)(C)CCC1` [RA, retinoic acid], the “albumin secretion level of organoids at D25” value in series [1] (1 day of RA treatment) is 1160 ng/mL; in series [1] (2 days of RA treatment), 1054 ng/mL; in series [1] (3 days of RA treatment), 3092 ng/mL; in series [1] (4 days of RA treatment), 4709 ng/mL; in series [1] (5 days of RA treatment) it was 3865 ng/mL.

On to `CCN(CC)C(=O)/C(C#N)=C/c1cc(O)c(O)c([N+](=O)[O-])c1` [Entacapone], for which the organoid viability in the series on human liver organoids (24 h) was 85%; in the series on human liver organoids (72 h) it was 64%.

Consider `CCCCCCCC/C=C\CCCCCCCC(=O)O` [oleic acid], for which the “lipid accumulation in organoids” value in the series with liver organoids is “intense”.

With `CN(CCOc1ccc(CC2SC(=O)NC2=O)cc1)c1ccccn1` (stereo not shown) [Rosiglitazone], the “toxicity in steatotic organoids” value in the series on lipotoxic organoid model was “vulnerable”.

`CC(=O)N[C@@H](CS)C(=O)O` [NAC, N-acetylcysteine]: the “cell viability with NAC (rescue from Troglitazone toxicity)” value with lipotoxic organoid model (lipotoxic condition, 50 μM Troglitazone with 50 μM NAC, 24h) is given as “significantly improved”.

For `COc1ccccc1Oc1c(NS(=O)(=O)c2ccc(C(C)(C)C)cc2)nc(-c2ncccn2)nc1OCCO` [Bosentan], the “efflux of FD (bile transport inhibition)” value in series [2] is “significantly decreased”.

On to `CCc1nn(CCCN2CCN(c3cccc(Cl)c3)CC2)c(=O)n1CCOc1ccccc1` [Nefazodone], for which, in the series on human liver organoids, the “cell viability at 72 hours relative to TOL, DICLO and BOS” value is given as “significantly lowered”. In series [2], the “efflux of FD (bile transport inhibition)” value is “significantly decreased”.

Consider `Cc1c(C)c2c(c(C)c1O)CCC(C)(COc1ccc(CC3SC(=O)NC3=O)cc1)O2` (stereo not shown) [Troglitazone], for which, in the series with human liver organoids, the “cell viability at 72 hours relative to TOL, DICLO and BOS” value was “significantly lowered”. For the same compound, the results for the cell viability in the series with human liver organoids (24 h) and with human liver organoids (72 h) were 85% and 67%, respectively. Further, the “cell viability compared to control” value with lipotoxic organoid model (lipotoxic condition (800 μM oleic acid 3 days), 50 μM for 24h, p<0.05) was −40%. Moreover, the “organoid morphology on lipotoxic condition” value in the series on lipotoxic organoid model (lipotoxic condition, 24h) is “massive fragmentation of organoids”. Further, the “efflux of FD (bile transport inhibition)” value in series [2] was “significantly decreased”.
